Measured values reported in US11274083B2, “Substituted thiophenyl uracils, salts thereof and the use thereof as herbicidal agents” (Syngenta Crop Protection AG, priority 2017, dated 2022).

Legend:
Assay type in all cases: in vivo
Digitaria sanguinalis = test: Herbicidal action post-emergence, greenhouse pot test; conditions: application rate 20 g/ha
Setaria viridis = test: as above; conditions: application rate 20 g/ha
Experimental: (§1) Seeds of mono- and dicotyledonous weed plants and crop plants were laid out in sandy loam soil in plastic or wood-fiber pots, covered with soil and grown under controlled growth conditions in a greenhouse. 2 to 3 weeks after sowing, the trial plants were treated at the one-leaf stage. The compounds of the invention formulated in the form of wettable powders (WP) or as emulsion concentrates (EC) were then sprayed onto the green parts of the plant as an aqueous suspension or emulsion with addition of 0.5% additive at a water application rate equivalent to 600 L/ha. After the trial plants had stood for about 3 weeks in the greenhouse, under optimal growth conditions, the effect of the preparations was scored visually by comparison with untreated controls. For example, 100% efficacy=plants have died, 0% efficacy=like control plants. Tables A1 to A16 below show the efficacies of selected compounds of the general formula (I) according to tables I.1 to I.50 on various harmful plants and an application rate corresponding to 80 g/ha or lower that were obtained by the aforementioned trial method.

Polygonum convolvulus = test: as above
Experimental: as §1

Echinochloa crus-galli = test: as above; conditions: application rate 20 g/ha
Experimental: as §1

Stellaria media = test: as above; conditions: application rate 20 g/ha
Experimental: as §1

Amaranthus retroflexus = test: as above; conditions: application rate 20 g/ha
Experimental: as §1

Matricaria inodora = test: as above; conditions: application rate 20 g/ha
Experimental: as §1

Pharbitis purpurea = test: as above; conditions: application rate 20 g/ha
Experimental: as §1

Veronica persica = test: as above
Experimental: as §1

Abutilon theophrasti = test: as above; conditions: application rate 20 g/ha
Experimental: as §1

Viola tricolor = test: as above; conditions: application rate 20 g/ha
Experimental: as §1

Triticum aestivum = test: Crop compatibility post-emergence, greenhouse pot test
Experimental: as §1, with “plants.” for “plants. Tables A1 to A16 below show the efficacies of selected compounds of the general formula (I) according to tables I.1 to I.50 on various harmful plants and an application rate corresponding to 80 g/ha or lower that were obtained by the aforementioned trial method.”
(§2) Crop plant compatibilities were also scored correspondingly.
(§3) The effects observed are reported here on selected crop plants by comparison, with the untreated controls (values in %).

Oryza sativa = test: as above
Experimental: as §1, with “plants.” for “plants. Tables A1 to A16 below show the efficacies of selected compounds of the general formula (I) according to tables I.1 to I.50 on various harmful plants and an application rate corresponding to 80 g/ha or lower that were obtained by the aforementioned trial method.”
as §2, §3

Triticum aestivum (Efficacy in %) (Triticum aestivum; application rate 5 g/ha) [%] | Oryza sativa (Efficacy in %) (Oryza sativa; application rate 20 g/ha) [%] | Triticum aestivum (Efficacy in %) (Triticum aestivum; application rate 20 g/ha) [%] | Compound | Digitaria sanguinalis (Efficacy in %) (Digitaria sanguinalis) [%] | Setaria viridis (Efficacy in %) (Setaria viridis) [%] | Polygonum convolvulus (Efficacy in %) (Polygonum convolvulus; application rate 20 g/ha) [%] | Echinochloa crus-galli (Efficacy in %) (Echinochloa crus-galli) [%] | Stellaria media (Efficacy in %) (Stellaria media) [%] | Amaranthus retroflexus (Efficacy in %) (Amaranthus retroflexus) [%] | Matricaria inodora (Efficacy in %) (Matricaria inodora) [%] | Pharbitis purpurea (Efficacy in %) (Pharbitis purpurea) [%] | Veronica persica (Efficacy in %) (Veronica persica; application rate 20 g/ha) [%] | Abutilon theophrasti (Efficacy in %) (Abutilon theophrasti) [%] | Viola tricolor (Efficacy in %) (Viola tricolor) [%] | Oryza sativa (Efficacy in %) (Oryza sativa; application rate 5 g/ha) [%] | Veronica persica (Efficacy in %) (Veronica persica; application rate 5 g/ha) [%] | Polygonum convolvulus (Efficacy in %) (Polygonum convolvulus; application rate 5 g/ha) [%]
0 | – | – | CCCCOC(=O)COC(=O)C(C)Sc1cc(-n2c(=O)cc(C(F)(F)F)n(C)c2=O)c(F)cc1Cl (stereo not shown) [I.1-51] | 90 | 100 | 100 | 100 | 100 | 100 | 100 | 100 | 100 | 100 | 100 | – | – | –
– | – | – | CC(Sc1cc(-n2c(=O)cc(C(F)(F)F)n(C)c2=O)c(F)cc1Cl)C(=O)OCC1CCC(=O)O1 (stereo not shown) [I.1-145] | – | – | – | – | – | – | – | – | – | – | – | 20 | – | –
– | – | – | CCOC(=O)C1(COC(=O)C(C)Sc2cc(-n3c(=O)cc(C(F)(F)F)n(C)c3=O)c(F)cc2Cl)CCOCC1 (stereo not shown) [I.1-293] | 100 | 90 | – | 90 | 100 | 100 | 100 | – | 100 | 100 | 100 | – | – | –
– | 0 | 20 | CCC(Sc1cc(-n2c(=O)cc(C(F)(F)F)n(C)c2=O)c(F)cc1Cl)C(=O)OCC1CCC(=O)O1 (stereo not shown) [I.2-145, (5-Oxotetrahydrofuran-2-yl)methyl 2-({2-chloro-4-fluoro-5-[3-methyl-2,6-dioxo-4-(trifluoromethyl)-3,6-dihydropyrimidin-1(2H)-yl]phenyl}sulfanyl)butanoate] | 100 | 100 | 100 | 100 | 100 | 100 | 100 | – | 100 | 100 | 100 | – | – | –
– | – | – | CCOC(=O)CCOC(=O)C(CC(C)C)Sc1cc(-n2c(=O)cc(C(F)(F)F)n(C)c2=O)c(F)cc1Cl (stereo not shown) [I.4-3, 3-Ethoxy-3-oxopropyl 2-({2-chloro-4-fluoro-5-[3-methyl-2,6-dioxo-4-(trifluormethyl)-3,6-dihydropyrimidin-1(2H)-yl]phenyl}sulfanyl)-4-methylpentanoate] | – | 90 | – | – | – | 100 | 80 | – | 80 | 100 | 100 | – | – | –
– | 10 | 10 | CCOC(=O)COC(=O)C(CC(C)C)Sc1cc(-n2c(=O)cc(C(F)(F)F)n(C)c2=O)c(F)cc1Cl (stereo not shown) [I.4-43] | – | – | 100 | – | 80 | 100 | 90 | – | 100 | 100 | 100 | – | – | –
– | 20 | – | CCOC(=O)CCOC(=O)C(Sc1cc(-n2c(=O)cc(C(F)(F)F)n(C)c2=O)c(F)cc1Cl)C(C)C (stereo not shown) [I.6-3, 3-Ethoxy-3-oxopropyl 2-({2-chloro-4-fluoro-5-[3-methyl-2,6-dioxo-4-(trifluoromethyl)-3,6-dihydropyrimidin-1(2H)-yl]phenyl}sulfanyl)-3-methylbutanoate] | 100 | 100 | – | – | 100 | 100 | 100 | – | 100 | 100 | 100 | – | – | –
– | 0 | – | CCOC(=O)COC(=O)C(Sc1cc(-n2c(=O)cc(C(F)(F)F)n(C)c2=O)c(F)cc1Cl)C(C)C (stereo not shown) [I.6-43, 2-Ethoxy-2-oxoethyl 2-({2-chloro-4-fluoro-5-[3-methyl-2,6-dioxo-4-(trifluoromethyl)-3,6-dihydropyrimidin-1(2H)-yl]phenyl}sulfanyl)-3-methylbutanoate] | – | – | – | – | 90 | – | – | – | – | 100 | 100 | – | 100 | –
– | – | – | CCOC(=O)COC(=O)C(COC)Sc1cc(-n2c(=O)cc(C(F)(F)F)n(C)c2=O)c(F)cc1Cl (stereo not shown) [I.7-43] | 100 | – | – | – | – | – | – | – | – | – | – | – | – | –
10 | – | – | CCOC(=O)COC(=O)CSc1cc(-n2c(=O)cc(C(F)(F)F)n(C)c2=O)c(F)cc1Cl [I.8-43] | – | 100 | 100 | 90 | 80 | 100 | 100 | 100 | 100 | 100 | 100 | – | – | –
20 | – | – | CC(C)OC(=O)COC(=O)CSc1cc(-n2c(=O)cc(C(F)(F)F)n(C)c2=O)c(F)cc1Cl [I.8-44] | – | 100 | – | – | 100 | 100 | 100 | 100 | 100 | 100 | 100 | – | – | 100
20 | – | – | Cn1c(C(F)(F)F)cc(=O)n(-c2cc(SCC(=O)OCC(=O)OCc3ccccc3)c(Cl)cc2F)c1=O [I.8-46] | – | 100 | 100 | 90 | 100 | 100 | 100 | 100 | 100 | 100 | 100 | – | – | –
– | 0 | 20 | CCCCOC(=O)COC(=O)CSc1cc(-n2c(=O)cc(C(F)(F)F)n(C)c2=O)c(F)cc1Cl [I.8-51] | 100 | 100 | 100 | 90 | – | 100 | 100 | 100 | 100 | 100 | 100 | – | – | –
10 | 10 | – | CCOC(=O)CCOC(=O)C(C)Sc1cc(-n2c(=O)c(C)c(C(F)(F)F)n(C)c2=O)c(F)cc1Cl (stereo not shown) [I.11-3] | – | – | – | 100 | 100 | – | 90 | – | – | 100 | 90 | – | – | –
